Measured values as given in patent publication US10407423B2, “Compounds as inhibitors of DNA methyltransferases” (FUNDACIÓN PARA LA INVESTIGACIÓN MÉDICA APLICADA, priority 2015, dated 2019).

Columns and labels:
[1] = tested on: HepG2 cells (hepatocellular carcinoma); experiment: Cell proliferation assay (CellTiter 96 Aqueous One), HepG2; type: cell-based; details: HepG2 (HCC), 48 hours of treatment
Procedure: (§1) Cell proliferation was analyzed after 48 hours of in vitro treatment using the CellTiter 96 Aqueous One Solution Cell Proliferation Assay (Promega, Madison, W). This is a colorimetric method for determining the number of viable cells in proliferation.
(§2) For the assay, suspension cells were cultured by triplicate at a density of 1×10^6 cells/ml in 96-well plates (100.000 cells/well, 100 μl/well), except for OCI-Ly3 and OCI-Ly10 cell lines which were cultured at a density of 0.5×10^6 cells/ml (50,000 cells/well, 100 μl/well) and for HepG2, Hep3B and PLC/PRF/5 cell lines which were cultured at a density of 3000 cells/well, 100 μl/well). Adherent cells were obtained from 80-90% confluent flasks and 100 μl of cells were seeded at a density of 5000 cells/well in 96-well plates by triplicate. Before addition of the compounds, adherent cells were allowed to attach to the bottom of the wells for 12 hours. In all cases, only the 60 inner wells were used to avoid any border effects.
(§3) After 48 hours of treatment, plates with suspension cells were centrifuged at 800 g for 10 minutes and medium was removed. The plates with adherent cells were flicked to remove medium. Then, cells were incubated with 100 μl/well of medium and 20 μl/well of CellTiter 96 Aqueous One Solution reagent. After 1-3 hours of incubation at 37° C., absorbance was measured at 490 nm in a 96-well plate reader. The background absorbance was measured in wells with only cell line medium and solution reagent. Data was calculated as a percentage of total absorbance of treated cell/absorbance of non treated cells.
(§4) These cancer cell lines and primary cultures correspond to acute lymphocytic leukemia (ALL), CEMO-1, to activated B-cell-like diffuse large B-cell lymphoma (ABC-DLBCL), OCI-Ly3 and OCI-Ly10 and to hepatocellular carcinoma cells (HCC), HepG2, Hep3B and PLC/PRF/5.

[2] = tested on: Hep3B cells (hepatocellular carcinoma); experiment: Cell proliferation assay (CellTiter 96 Aqueous One), Hep3B; type: cell-based; details: Hep3B (HCC), 48 hours of treatment
Procedure: as §1, §2, §3, §4

[3] = molecular target: human G9a enzyme (Homo sapiens (Human), UniProt Q96KQ7); experiment: G9a enzyme activity assay (TR-FRET); type: biochemical; details: 1 hour at room temperature
Procedure: G9a Enzyme Activity Assay
The biochemical assay to measure G9a enzyme activity relies on time-resolved fluorescence energy transfer (TR-FRET) between europium cryptate (donor) and XL665 (acceptor). TR-FRET is observed when biotinylated histone monomethyl-H3K9 peptide is incubated with cryptate-labeled anti-dimethyl-histone H3K9 antibody (CisBio Cat#61KB2KAE) and streptavidin XL665 (CisBio Cat#610SAXLA), after enzymatic reaction of G9a.
The human G9a enzyme expressed in a baculovirus infected Sf9 cell expression system was obtained from BPS Biosciences (Cat. #51001). Enzyme activity assay was carried out in a white 384-well plate in a final volume of 20 μl, as follow: • 4 μl of vehicle or studied compound 2.5× concentrated prepared in assay buffer (50 mM Tris-HCl, 10 mM NaCl, 4 mM DTT, 0.01% Tween-20 pH9). Final percentage of DMSO was 0.5%. • 2 μl of 1 nM G9a enzyme diluted in assay buffer. Final concentration was 0.2 nM. • Start the reaction by adding 4 μl of substrate mixture containing 20 μM S-adenosylmethionine and 40 nM biotinylated histone monomethyl-H3K9 peptide. • Reaction was carried out during 1 hour at room temperature. • Enzyme activity was stopped by adding 5 μl of cryptate-labeled anti-dimethyl-histone H3K9 antibody. Final concentration 150 nM. • Then, add 5 μl of streptavidin XL665 beads. Final concentration of 16 μM. • Read the plate after 1 hour of incubation at room temperature.
(§5) For each well, fluorescence was measured at 620 nm and 665 nm. A ratio (665 nm/620 nm) was then calculated in order to minimize medium interferences. Positive control was obtained in the presence of the vehicle of the compounds. Negative control was obtained in the absence of G9a enzyme activity. Calculated IC50 values were determined using GraphPrism using 4-parameters inhibition curve.

[4] = tested on: CEMO-1 cells (acute lymphocytic leukemia, ALL); experiment: Cell proliferation assay (CellTiter 96 Aqueous One), CEMO-1; type: cell-based; details: CEMO-1 (ALL), 48 hours of treatment
Procedure: as §1, §2, §3, §4

[5] = tested on: PLC/PRF/5 cells (hepatocellular carcinoma); experiment: Cell proliferation assay (CellTiter 96 Aqueous One), PLC/PRF/5; type: cell-based; details: PLC/PRF/5 (HCC), 48 hours of treatment
Procedure: as §1, §2, §3, §4

[6] = molecular target: human DNMT1 (Homo sapiens (Human), UniProt P26358); experiment: DNMT1 enzyme activity assay (TR-FRET, EPIgeneous methyltransferase assay); type: biochemical; details: 15 minutes at 37° C.
Procedure: DNMT1 Enzyme Activity Assay
The biochemical assay to measure DNMT1 enzyme activity relies on time-resolved fluorescence energy transfer (TR-FRET) between lumi4-Tb (donor) and d2 (acceptor) using the EPlgeneous methyltransferase assay (CisBio Cat#62SAHPEB). TR-FRET is observed when antibody specific to S-adenosylhomocysteine labeled with Lumi4-Tb is incubated with d2-labeled S-adenosylhomocysteine. TR-FRET signal is inversely proportional to the concentration of SAH, product of DNMT1 enzyme activity, in the sample. The human DNMT1 was obtained from Reaction Biology Corp. (Cat# DMT-21-124).
Enzyme activity assay was carried out in a white 384-well plate in a final volume of 20 μl, as follow: • 4 μl of vehicle or studied compound 2.5× concentrated prepared in assay buffer (50 mM Tris-HCl, 1 mM EDTA, 1 mM DTT, 0.1% Triton X-100, 5% glycerol pH 7.5). Final percentage of DMSO was 0.5%. • 2 μl of […] DNMT1 enzyme diluted in assay buffer. Final concentration was 20 nM. • Start the reaction by adding 4 μl of substrate mixture containing 1 μM S-adenosylmethionine and 1 μM poly-deoxy inosine poly-deoxy cytosine (pdI-pdC) DNA. • Reaction was carried out during 15 minutes at 37° C. • Enzyme activity was stopped by adding 2 μl of buffer one of the EPIgeneous methyltransferase assay. • After 10 minutes at room temperature, it was added 4 μl of antibody specific to S-adenosylhomocysteine labeled with Lumi4-Tb 50× diluted in buffer two of the EPIgeneous methyltransferase assay. • Add 4 μl of d2-labeled S-adenosylhomocysteine 31× diluted in buffer two of the EPIgeneous methyltransferase assay. • Read the plate after 1 hour of incubation at room temperature.
as §5

[7] = tested on: OCI-Ly10 cells (ABC-DLBCL); experiment: Cell proliferation assay (CellTiter 96 Aqueous One), OCI-Ly10; type: cell-based; details: Homo sapiens, 48 hours of treatment
Procedure: as §1
as §2, with “In all cases, only the 60 inner wells were used to avoid any border effects.” left out
as §3, with “The plates with adherent cells were flicked to remove medium. Then, cells were incubated with 100 μl/well of medium and 20 μl/well of CellTiter 96 Aqueous One Solution reagent.” left out, “cells. […]” for “cells.”

[8] = tested on: OCI-Ly3 cells (ABC-DLBCL); experiment: Cell proliferation assay (CellTiter 96 Aqueous One), OCI-Ly3; type: cell-based; details: Homo sapiens, 48 hours of treatment
Procedure: as §1
as §2, with “In all cases, only the 60 inner wells were used to avoid any border effects.” left out
as §3, with “The plates with adherent cells were flicked to remove medium. Then, cells were incubated with 100 μl/well of medium and 20 μl/well of CellTiter 96 Aqueous One Solution reagent.” left out, “cells. […]” for “cells.”

Sequence of human G9a enzyme (Q96KQ7 whole entry): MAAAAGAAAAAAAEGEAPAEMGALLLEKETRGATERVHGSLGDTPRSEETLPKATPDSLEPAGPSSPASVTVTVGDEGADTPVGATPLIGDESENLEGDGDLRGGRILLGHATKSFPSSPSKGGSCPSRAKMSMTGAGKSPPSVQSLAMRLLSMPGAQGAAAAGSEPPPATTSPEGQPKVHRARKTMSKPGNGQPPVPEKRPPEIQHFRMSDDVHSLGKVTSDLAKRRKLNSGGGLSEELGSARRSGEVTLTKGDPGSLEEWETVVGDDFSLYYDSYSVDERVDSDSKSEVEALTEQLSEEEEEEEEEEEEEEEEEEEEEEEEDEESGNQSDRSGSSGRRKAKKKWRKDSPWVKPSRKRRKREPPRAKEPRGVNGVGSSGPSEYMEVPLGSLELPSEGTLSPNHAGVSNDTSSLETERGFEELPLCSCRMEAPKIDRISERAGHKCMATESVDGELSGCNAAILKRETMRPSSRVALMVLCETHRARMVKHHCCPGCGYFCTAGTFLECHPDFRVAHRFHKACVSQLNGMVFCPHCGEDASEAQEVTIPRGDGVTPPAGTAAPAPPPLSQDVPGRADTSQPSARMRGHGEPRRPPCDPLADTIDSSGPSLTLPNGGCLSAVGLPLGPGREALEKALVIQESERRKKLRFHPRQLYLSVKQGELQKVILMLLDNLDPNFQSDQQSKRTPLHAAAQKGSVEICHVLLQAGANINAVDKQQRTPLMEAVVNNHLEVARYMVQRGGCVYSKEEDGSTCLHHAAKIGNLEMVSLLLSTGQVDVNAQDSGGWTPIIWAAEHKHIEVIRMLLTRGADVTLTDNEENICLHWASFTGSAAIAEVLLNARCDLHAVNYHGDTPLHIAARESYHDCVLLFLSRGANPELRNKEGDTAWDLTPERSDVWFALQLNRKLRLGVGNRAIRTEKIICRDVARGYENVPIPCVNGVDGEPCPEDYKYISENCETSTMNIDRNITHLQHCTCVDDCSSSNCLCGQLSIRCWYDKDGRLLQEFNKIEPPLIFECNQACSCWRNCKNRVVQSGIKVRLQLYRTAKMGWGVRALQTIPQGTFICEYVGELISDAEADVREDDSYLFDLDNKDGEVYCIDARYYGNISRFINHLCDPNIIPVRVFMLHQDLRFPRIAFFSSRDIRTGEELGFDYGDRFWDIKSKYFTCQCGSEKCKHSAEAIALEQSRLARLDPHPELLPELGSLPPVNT
Sequence of human DNMT1 (P26358 whole entry): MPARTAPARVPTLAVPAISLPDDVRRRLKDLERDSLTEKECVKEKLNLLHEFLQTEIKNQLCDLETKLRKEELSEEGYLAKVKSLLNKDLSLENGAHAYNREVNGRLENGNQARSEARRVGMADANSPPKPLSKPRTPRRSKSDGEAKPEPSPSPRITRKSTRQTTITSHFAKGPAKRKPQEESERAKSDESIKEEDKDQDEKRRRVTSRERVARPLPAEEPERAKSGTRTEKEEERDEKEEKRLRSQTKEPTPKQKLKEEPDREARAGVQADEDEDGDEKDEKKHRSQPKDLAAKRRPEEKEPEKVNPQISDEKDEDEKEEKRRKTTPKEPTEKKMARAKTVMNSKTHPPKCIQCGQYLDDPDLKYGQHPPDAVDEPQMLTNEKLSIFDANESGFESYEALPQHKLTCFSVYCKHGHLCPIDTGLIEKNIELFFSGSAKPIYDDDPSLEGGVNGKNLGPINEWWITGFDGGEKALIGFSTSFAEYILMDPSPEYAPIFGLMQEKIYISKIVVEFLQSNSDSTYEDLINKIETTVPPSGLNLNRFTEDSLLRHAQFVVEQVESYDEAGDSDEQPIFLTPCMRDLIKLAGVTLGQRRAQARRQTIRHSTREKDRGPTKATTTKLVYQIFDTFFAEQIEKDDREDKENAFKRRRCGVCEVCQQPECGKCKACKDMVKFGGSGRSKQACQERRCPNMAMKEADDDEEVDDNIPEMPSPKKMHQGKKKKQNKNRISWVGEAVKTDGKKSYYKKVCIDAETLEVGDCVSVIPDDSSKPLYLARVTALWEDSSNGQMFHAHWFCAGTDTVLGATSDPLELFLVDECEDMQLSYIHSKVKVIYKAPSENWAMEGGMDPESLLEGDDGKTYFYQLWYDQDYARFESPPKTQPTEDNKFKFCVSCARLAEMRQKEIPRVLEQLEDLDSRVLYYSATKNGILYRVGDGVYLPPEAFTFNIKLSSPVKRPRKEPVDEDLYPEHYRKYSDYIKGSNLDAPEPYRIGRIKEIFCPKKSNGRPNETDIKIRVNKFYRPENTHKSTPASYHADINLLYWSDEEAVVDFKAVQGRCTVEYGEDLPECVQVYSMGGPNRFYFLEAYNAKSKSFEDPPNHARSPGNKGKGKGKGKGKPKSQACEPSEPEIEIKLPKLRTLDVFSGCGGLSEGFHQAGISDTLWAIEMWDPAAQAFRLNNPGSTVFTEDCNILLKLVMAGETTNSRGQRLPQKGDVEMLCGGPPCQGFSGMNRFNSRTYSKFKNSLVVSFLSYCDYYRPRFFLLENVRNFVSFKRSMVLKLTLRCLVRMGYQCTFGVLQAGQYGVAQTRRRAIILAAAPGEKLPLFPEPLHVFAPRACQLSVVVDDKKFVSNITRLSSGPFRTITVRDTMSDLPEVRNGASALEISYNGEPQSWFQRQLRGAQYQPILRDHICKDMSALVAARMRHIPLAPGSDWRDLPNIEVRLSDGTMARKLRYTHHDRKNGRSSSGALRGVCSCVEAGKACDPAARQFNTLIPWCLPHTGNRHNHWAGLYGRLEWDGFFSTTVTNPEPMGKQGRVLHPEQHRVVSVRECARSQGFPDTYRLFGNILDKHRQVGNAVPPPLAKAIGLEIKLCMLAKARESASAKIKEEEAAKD

| Compound | GI50 ([1]; Homo sapiens) [µM] | GI50 ([2]; Homo sapiens) [µM] | IC50 [3] [µM] | GI50 [4] [µM] | GI50 ([5]; Homo sapiens) [µM] | IC50 [6] [µM] | GI50 [7] [µM] | GI50 [8] [µM] | GI50 [1] [µM] | GI50 [2] [µM] | GI50 [5] [µM] |
| --- | --- | --- | --- | --- | --- | --- | --- | --- | --- | --- | --- |
| COc1cc2c3c(c(-c4ccc(C)o4)nc2cc1OCCCN1CCCC1)CCC(CC1CCN(C)CC1)N3 (centres unmarked) [Compound 2-06, 9-methoxy-5-(5-methyl-2-furyl)-2-[(1-methyl-4-piperidyl)methyl]-8-(3-pyrrolidin-1-ylpropoxy)-1,2,3,4-tetrahydrobenzo[h][1,6]naphthyridine] | ≥ 10 | ≥ 10 | < 0.1 | 1 to 10 | 1 to 10 | 0.1 to 0.5 | – | – | – | – | – |
| COc1cc2c3c(c(-c4ccc(C)o4)nc2cc1OCCCN1CCCC1)CCC(CC1CCN(C(C)C)CC1)N3 (centres unmarked) [Compound 2-08, 2-[(1-isopropyl-4-piperidyl)methyl]-9-methoxy-5-(5-methyl-2-furyl)-8-(3-pyrrolidin-1-ylpropoxy)-1,2,3,4-tetrahydrobenzo[h][1,6]naphthyridine] | 1 to 10 | 1 to 10 | < 0.1 | 1 to 10 | 1 to 10 | 0.5 to 1 | – | – | – | – | – |
| COc1cc2c(cc1OCCCN1CCCC1)nc(-c1ccc(C)o1)c1cc(CC3CCN(C(C)C)CC3)[nH]c12 [Compound 1-03, 2-[(1-isopropyl-4-piperidyl)methyl]-8-methoxy-4-(5-methyl-2-furyl)-7-(3-pyrrolidin-1-ylpropoxy)-1H-pyrrolo[3,2-c]quinoline] | 1 to 10 | 1 to 10 | 0.1 to 0.5 | 1 to 10 | 0.1 to 1 | 0.5 to 1 | – | – | – | – | – |
| COc1cc2c(cc1OCCCN1CCCC1)nc(-c1ccc(C)o1)c1cc(CC3CCN(C)CC3)[nH]c12 [Compound 1-02, 8-methoxy-4-(5-methyl-2-furyl)-2-[(1-methyl-4-piperidyl)methyl]-7-(3-pyrrolidin-1-ylpropoxy)-1H-pyrrolo[3,2-c]quinoline] | 1 to 10 | 1 to 10 | 0.1 to 0.5 | 0.1 to 1 | 0.1 to 1 | 0.1 to 0.5 | 1 to 10 | 0.1 to 1 | – | – | – |
| CCc1ccc(-c2nc3cc(OCCCN4CCCC4)c(OC)cc3c3[nH]c(CC4CCN(C)CC4)cc23)o1 [Compound 1-04] | – | – | 0.1 to 0.5 | 0.1 to 1 | – | 0.5 to 1 | – | – | 1 to 10 | 1 to 10 | 0.1 to 1 |
| COc1cc2c3c(c(-c4ccc(C)o4)nc2cc1OCCCN1CCCC1)CCC(CC1CCN(C2CC2)CC1)N3 (centres unmarked) [Compound 2-07, 2-[(1-cyclopropyl-4-piperidyl)methyl]-9-methoxy-5-(5-methyl-2-furyl)-8-(3-pyrrolidin-1-ylpropoxy)-1,2,3,4-tetrahydrobenzo[h][1,6]naphthyridine] | 1 to 10 | 1 to 10 | < 0.1 | 1 to 10 | 1 to 10 | 0.5 to 1 | – | – | – | – | – |
